As usually defined, the viability, T/C is the ratio of treated to control. The IC50 is the concentration that gives 50% inhibition.

This assay has as its system 616215-338-R-J1-PDC complex spheroid growth, % test/control. The assay is described as follows: Anticancer human tumor 616215-338-R-J1-PDC patient-derived colon adenocarcinoma cell line growth inhibition [Asc]. The settings on record: for viability, T/C: stronger effect = lower value. As for the experimental part: Multicellular complex tumor spheroid response to apoptosis pathway targeting inhibitors Alrizomadlin, Pelcitoclax, and Dasminapant in combination with a variety of drugs and investigational agents in selected tumor cell lines
The MDM2 inhibitor alrizomadlin, the Bcl-2/Bcl-xL inhibitor pelcitoclax, and the IAPs inhibitor dasminapant were evaluated both individually and in combination with standard of care and investigational anticancer small molecules within a complex spheroid model of solid tumors. . Complex spheroids include a stromal component modeled by human endothelial cells (HUVEC) and fibroblasts modeled by human mesenchymal stem cells (MSCs). The concentration ranges selected for each drug and investigational agent were based upon clinically achievable concentrations if the clinical Cmax of the agent was known.
Compounds. The drugs and investigational agents: alrizomadlin (APG-115; NSC831270), pelcitoclax (APG-1252; NSC835773), dasminapant (APG-1387;NSC834197), TAK-243 (NSC785004), copanlisib (NSC809693), olaparib (NSC753686), talazoparib (NSC767125), cobimetinib (NSC 768068), eltanexor (KPT-8602, NSC 794443), abemaciclib (NSC 768073), sotorasib (NSC818433), adagrasib (NSC 831453), MRTX-1133 (NSC 836407), Iadademestat (ORY1001, NSC 806812), and RMC-4630 (NSC839698), were obtained from the NCI Developmental Therapeutics Program Chemical Repository. The FDA-approved anticancer drug set is available from the Developmental Therapeutics Program at https://dtp.cancer.gov/organization/dscb/obtaining/available plates.htm. […] The stock solutions were prepared in dimethyl sulfoxide (DMSO, Sigma-Aldrich, St. Louis, MO, cat. D2650) at 800-fold the tested concentration and stored at -70 degrees C prior to their use. All drugs and investigational agents were tested over a range starting from a high concentration at or near the clinical Cmax and decreasing in half-log increments. If the clinical Cmax for an agent had not been determined, the highest concentration tested was 10 microM.
The patient-derived cancer (PDC) cell lines include five colon adenocarcinomas: 186277-243-T-J2-PDC, 616215-338-R-J1-PDC, 439559-082-T-J2-PDC, 463943-066-T-J2-PDC, and 519858-162-T-J1-PDC; three pancreatic carcinomas: 323965-272-R-J2-PDC, 521955-158-R6-J3-PDC, and 521955-158-R2-J5-PDC; two uterine sarcomas: 327498-152-R-J2-PDC and 993429-296-R-J1-PDC; two rhabdomyosarcomas: 755483-174-R-J1-PDC and 772245-204-R-J1-PDC; two soft tissue sarcomas: 126254-015-R-J1-PDC and 494315-158-R-J1-PDC; two malignant fibrous histiocytomas: 317291-083-R-J1-PDC and 596521-263-R-J1-PDC; two breast carcinomas: 171881-019-R-J1-PDC and 885512-296-R-J2-PDC; and one ovarian carcinoma: 6556581-035-R-J-PDC were obtained from the NCI PDMR, (https://pdmr.cancer.gov). The established cell lines HSSY-2 synovial sarcoma (RRID:CVCL 8719), SYO-1 synovial sarcoma (RRID:CVCL_7146), MPNST malignant peripheral neural sheath tumor were obtained from the Sloan Kettering Institute. The following established cell lines were purchased from the American Type Culture Collection (ATCC, Manassas, VA), Sor the received from the NCI repository:, PANC-1 pancreatic carcinoma (CRL-1469, RRID:CVCL_0480), OVCAR-5 ovarian carcinoma (RRID:CVCL_1628), OVCAR-8 ovarian carcinoma (RRID:CVCL_1629), , MCF-7 breast carcinoma (CRL-12584, RRID:CVCL_0031), MDA-MB-231 breast carcinoma (CRL-12532, RRID:CVCL_0062), NCI-H1876 small cell lung carcinoma (CRL-5902, RRID:CVCL_1503), NCI-H510A small cell lung carcinoma (HTB-184, RRID:CVCL_1565), NCI-H1417 (CRL-5869, RRID:CVCL_1469), and NCI-H196 small cell lung carcinoma (CRL-5823, RRID:CVCL_1509). Dr. Peter Houghton (Greehey Children's Cancer Research Institute, University of Texas Health Science Center, San Antonio, TX) provided Rh-18 rhabdomyosarcoma (RRID:CVCL_1659). Pooled donor human umbilical vein endothelial cells (HUVEC, Lonza, cat. CC-2519) and human mesenchymal stem cells (hMSC, Lonza, cat. PT-2501) were purchased from Lonza (Walkersville, MD).
Cell Culture. […]

Where “and” joins values, the source holds several entries; their conditions need not be identical. Identical values can stand only once. Bounds are passed on as bounds.
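Also: spheroids exposed to agents for seven days before readout.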
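For viability, T/C in this document: 100% = DMSO vehicle control viability.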

Turning to `CNC(C)C(=O)NC1CN(S(=O)(=O)c2cccc(S(=O)(=O)N3CCC4CCC(C(=O)NC(c5ccccc5)c5ccccc5)N4C(=O)C(NC(=O)C(C)NC)C3)c2)CCC2CCC(C(=O)NC(c3ccccc3)c3ccccc3)N2C1=O` (stereo unspecified), the viability, T/C runs as follows: (compound 0.01 µM) 105% [middle of 9 runs]; (compound 0.1 µM) 101% [middle of 9 runs]; (compound 0.316 µM) 102% [middle of 9 runs]; (compound 1 µM) 101% [middle of 9 runs]. Also, the half-inhibitory concentration (IC50) (curve of compound) is above 1 µM.
Consider `O=C(c1cc(Cc2n[nH]c(=O)c3ccccc23)ccc1F)N1CCN(C(=O)C2CC2)CC1` + Cc1c(S(C)(=O)=O)c(-c2cc(F)cc(N3CCN(c4ccc(NS(=O)(=O)c5ccc(NC(CCN6CCC(C(=O)OCCCP(=O)(O)O)CC6)CSc6ccccc6)c(S(=O)(=O)C(F)(F)F)c5)cc4)CC3)c2)c(-c2ccc(Cl)cc2)n1C(C)C, for which the half-maximal inhibitory concentration (IC50) was above 10 µM (curve of first compound, second compound 0.1 µM); 6.75 µM (curve of first compound, second compound 0.316 µM); 0.755 µM (curve of first compound, second compound 1 µM); below 0.0316 µM (curve of first compound, second compound 3.16 µM); below 0.0316 µM (curve of first compound, second compound 10 µM). Moreover, the viability, T/C was 95.5% (second compound 0.1 µM, first compound 0.0316 µM); 96% (second compound 0.1 µM, first compound 0.1 µM); 92.5% (second compound 0.1 µM, first compound 0.316 µM); 92% (second compound 0.1 µM, first compound 1 µM); 89.1% (second compound 0.1 µM, first compound 3.16 µM); 78.8% (second compound 0.1 µM, first compound 10 µM). The viability, T/C is 88.8% (second compound 0.316 µM, first compound 0.0316 µM); 90% (second compound 0.316 µM, first compound 0.1 µM); 85.4% (second compound 0.316 µM, first compound 0.316 µM); 86.5% (second compound 0.316 µM, first compound 1 µM); 66.6% (second compound 0.316 µM, first compound 3.16 µM); 41.4% (second compound 0.316 µM, first compound 10 µM). Besides, the viability, T/C runs as follows: (second compound 1 µM, first compound 0.0316 µM) 72.7%; (second compound 1 µM, first compound 0.1 µM) 67.6%; (second compound 1 µM, first compound 0.316 µM) 59%; (second compound 1 µM, first compound 1 µM) 49%; (second compound 1 µM, first compound 3.16 µM) 26.3%; (second compound 1 µM, first compound 10 µM) 10.9%. In addition, the viability, T/C (second compound 3.16 µM, first compound 0.0316 µM) was 34%; the viability, T/C (second compound 3.16 µM, first compound 0.1 µM) was 30.4%; the viability, T/C (second compound 3.16 µM, first compound 0.316 µM) is 25.3%; the viability, T/C (second compound 3.16 µM, first compound 1 µM) was 17.2%; the viability, T/C (second compound 3.16 µM, first compound 3.16 µM) was 3.59%; the viability, T/C (second compound 3.16 µM, first compound 10 µM) was 2.49%. In addition, the viability, T/C by setting is: (second compound 10 µM, first compound 0.0316 µM) 20.7%; (second compound 10 µM, first compound 0.1 µM) 18.4%; (second compound 10 µM, first compound 0.316 µM) 11.2%; (second compound 10 µM, first compound 1 µM) 3.83%; (second compound 10 µM, first compound 3.16 µM) 1.31%; (second compound 10 µM, first compound 10 µM) 1.84%.
Consider `C#Cc1c(F)ccc2cc(O)cc(-c3ncc4c(N5CC6CCC(C5)N6)nc(OCC56CCCN5CC(F)C6)nc4c3F)c12` (stereo unspecified), for which the viability, T/C (compound 0.0316 µM) is 105% and 96.2% and 99%; the viability, T/C (compound 0.1 µM) was 96% and 104% and 102%; the viability, T/C (compound 0.316 µM) is 104% (2×) and 94.8%; the viability, T/C (compound 1 µM) was 106% and 113% and 101%; the viability, T/C (compound 3.16 µM) is 49.3% and 108% and 101%. For the same compound, the half-maximal inhibitory concentration (IC50) (curve of compound) was 3.12 µM and > 10 µM.

(Values after PubChem BioAssay AID1963448 (Molecular Pharmacology Branch, DTP, NCI, 2024).)
